Results published in paper PMC4137327 (Journal of neurochemistry, 2014).
Entries after “also recorded” stand apart in the source; their conditions may differ. Where two headings read alike, the source gives them in different places. Ends that are not written are not given here.

Key:
[1] = molecular target: Ang-(1–7) peptidase activity in CSF (Ovis aries, UniProt A0ACI6RWG7); test: Inhibitor profile of 125I-Ang-; format: biochemical, sheep; conditions: CSF 25 µl, cocktail, 60 min, 37°C
[2] = molecular target: T1, Ang-(1–7) peptidase purified from sheep brain medulla (Ovis aries, UniProt A0ACI6RWG7); test: Inhibitor profile of 125I-Ang-; format: biochemical; conditions: cocktail; for effect of inhibitor on peptidase activity (in words): enriched medullary peptidase, 60 min, 37°C
[3] = molecular target: T1, Ang-(1–7) peptidase purified from sheep brain medulla
[4] = system: ACE; conditions: read-out: reported IC50; ref Doulut et al. 1993; cited from earlier work

aprotinin
Inhibitor Sensitivity (% of control) ([1]; inhibitor 80 µM): 100 % of control
effect of inhibitor on peptidase activity (in words) ([2]; inhibitor 80 µM): insensitive

c1cnc2c(c1)ccc1cccnc12 [o-phenanthroline]
effect of inhibitor on peptidase activity (in words) ([2]; inhibitor 1 mM, N=3): abolished peptidase activity; also recorded: sensitive

CC[C@H](C)[C@H](NC(=O)[C@H](Cc1ccc(O)cc1)NC(=O)[C@@H](NC(=O)[C@H](CCCNC(=N)N)NC(=O)[C@@H](N)CC(=O)O)C(C)C)C(=O)N[C@@H](Cc1cnc[nH]1)C(=O)N1CCC[C@H]1C(=O)N[C@@H](Cc1ccccc1)C(=O)O [Ang II]
hydrolysis of unlabeled peptide by the peptidase ([3]; HPLC analysis, unlabeled peptide 0.4 mM, 24 hours, 37°C): < 5%

DRVYIHPFHL [Ang I]
hydrolysis of unlabeled peptide by the peptidase ([3]; sheep, purified brain medulla peptidase, 24 h, 400 µM): < 5%

O[C@@H](CS)[C@@H](O)CS (racemic) [DTT, dithiothreitol]
effect of inhibitor on peptidase activity (in words) ([2]; inhibitor 5 mM, N=3): partial inhibition

CC(C)C[C@H](NC(=O)[C@@H](CC(=O)NO)Cc1ccccc1)C(=O)O [JMV-390, N-[3-[(hydroxyamino)carbonyl]-1-oxo-2(R)-benzylpropyl]-L-leucine]
IC50 [4]: 70 µM
effect on the Ang-(1–4) peak (in words) ([2]; 1 nM JMV-390, purified enzyme): reduced the Ang-(1–4) peak
effect on peptidase activity (in words) ([2]; 100 nM JMV-390, purified enzyme): essentially abolished activity
effect on the peak of Ang-(1–4) from unlabeled Ang-(1–7) (in words) ([3]; 10 µM JMV-390, Ang-(1–7) 400 µM, 24 hours, 37°C (Figure 6B)): abolished

O=S(=O)(F)Cc1ccccc1 [PMSF, phenylmethylsulfonyl fluoride]
effect of inhibitor on peptidase activity (in words) ([2]; inhibitor 100 µM, N=3): insensitive; also recorded: did not inhibit activity

B1: soybean trypsin inhibitor (protein, UniProt P01070 25-205, looked up)
Trypsin inhibitor A: DFVLDNEGNPLENGGTYYILSDITAFGGIRAAPTGNERCPLTVVQSRNELDKGIGTIISSPYRIRFIAEGHPLSLKFDSFAVIMLCVGIPTEWSVVEDLPEGPAVKIGENKDAMDGWFRLERVSDDEFNNYKLVFCPQQAEDDKCGDIGISIDHDDGTRRLVVSKNKPLVVQFQKLDKESL
Inhibitor Sensitivity (% of control) ([1]; inhibitor 100 µM, mean ± SEM): 101 ± 2 % of control
effect of inhibitor on peptidase activity (in words) ([2]; inhibitor 100 µM, N=3): insensitive
